The text below walks through data of ChEMBL document CHEMBL4414594, “Hepatoprotective Tetrahydrobenzocyclooctabenzofuranone Lignans from Kadsura longipedunculata” (2019).

Activity calls are given as the source filed them. The rule behind the calls is not given here.

For the first assay, the system named is HepG2. The assay is described as follows: Hepatoprotective activity against APAP-induced cytotoxicity in human HepG2 cells assessed as cell survival rate at 10 uM incubated for 48 hrs by MTT assay relative to control. It counts as functional.
Regarding `COc1c(O)cc2c(c1OC)-c1c(cc(O)c(OC)c1OC)[C@H](OC(=O)c1ccccc1)[C@H](C)[C@H](C)C2`, the outcome was inactive. With `COC1=C(OC)C(=O)[C@]23COc4c5c(cc(c42)[C@H](OC(=O)/C=C/c2ccccc2)[C@H](C)[C@@](C)(O)CC3=C1)OCO5`, the Activity came to 37%. Same read-out and setting: to `COC1=C(OC)C(=O)[C@]23COc4c5c(cc(c42)[C@H](OC(=O)/C=C/c2ccccc2)[C@H](C)[C@](C)(O)CC3=C1)OCO5` belongs 50.8%.

For `COC(=O)c1cc(OC)c2c(c1-c1c(CO)cc(OC)c3c1OCO3)OCO2` [BICYCLOL], the Activity is 49%. Still for that read-out and setting: then `COc1c(O[C@@H]2O[C@H](CO)[C@@H](O)[C@H](O)[C@H]2O)cc2c(c1O)-c1c(cc3c(c1OC)OCO3)[C@H](O)[C@H](C)[C@H](C)C2`, with “inactive”.

In the next assay the test system is Peritoneal macrophage. Briefly: Antiinflammatory activity in C57BL/6J mouse peritoneal macrophages assessed as inhibition of LPS-induced nitric oxide production at 10 uM incubated for 24 hrs in presence of LPS by Griess test relative to control. It counts as functional. On the technique in general: The Griess reaction detects nitrite, a stable product of nitric oxide.
Regarding `COC1=C(OC)C(=O)[C@]23COc4c5c(cc(c42)[C@H](OC(=O)/C=C/c2ccccc2)[C@H](C)[C@](C)(O)CC3=C1)OCO5`, the inhibition (in general, the percentage by which the read-out fell short of the control) at 10 µM was 74.9%. Still for that read-out and setting: to `C/C=C/c1ccc(O[C@H](C)[C@@H](O)c2cc(O)c(OC)c(OC)c2)c(OC)c1` belongs 89.8%; to `C/C=C(/C)C(=O)O[C@H]1c2cc(O)c(O[C@@H]3O[C@H](CO)[C@@H](O)[C@H](O)[C@H]3O)c3c2[C@@]2(CO3)C(=O)C(OC)=C(OC)C=C2C[C@@H](C)[C@H]1C`, 55.1%.
